# Tested on: 8XTBD luciferase reporter
# Experiment: YAP Reporter Assay
# Assay type: cell-based
# Details: Homo sapiens, HEK-293T; HEK293T cells stably transfected with 8XTBD luciferase reporter and pRLTK; 24-hr incubation; starting from 3 μM, 1:3 dilution, 10 points; read-out: Firefly Luciferase IC50
# How it was run: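 HEK293T cells stably carrying the 8XTBD firefly luciferase reporter and TK-renilla control received compounds at a 10-point, 1:3 series from 3 μM (final) in quadruplicate. After 24 h at 37° C, Dual-Glo luminescence was read. IC50 and maximal inhibition were reported separately for firefly and renilla signals.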
row,IC50,SMILES
1,≤ 100 nM,"CNS(=O)(=O)c1ccc(NC2CCCCC2)c(-n2nccn2)c1 [Compound 81, 4-(Cyclohexylamino)-N-methyl-3-(2H-1,2,3-triazol-2-yl)benzenesulfonamide]"
2,≤ 100 nM,"CNS(=O)(=O)c1ccc(NC2CCCCC2)c(-c2ccn(C)n2)c1 [Compound 57, 4-(cyclohexylamino)-N-methyl-3-(1-methyl-1H-pyrazol-3-yl)benzenesulfonamide]"
3,≤ 100 nM,"CNS(=O)(=O)c1ccc(NC2CCCCC2)c(-c2nnn(-c3cccnc3)n2)c1 [Compound 45, 4-(cyclohexylamino)-N-methyl-3-(2-(pyridin-3-yl)-2H-tetrazol-5-yl)benzenesulfonamide]"
4,> 3000 nM,"CNS(=O)(=O)c1ccc(NC2CCCCC2)c(-c2nnn(C3CNC3)n2)c1 [Compound 54, 3-(2-(azetidin-3-yl)-2H-tetrazol-5-yl)-4-(cyclohexylamino)-N-methylbenzenesulfonamide]"
5,> 3000 nM,"Cn1cc(-c2cc(S(C)(=O)=O)ccc2NC2CCCCC2)cn1 [Compound 7, N-cyclohexyl-2-(1-methyl-1H-pyrazol-4-yl)-4-(methylsulfonyl)aniline]"
6,≤ 100 nM,"CCCCn1nnc(-c2cc(S(=O)(=O)NC)ccc2NC2CCCCC2)n1 [Compound 21, 3-(2-butyltetrazol-5-yl)-4-(cyclohexylamino)-N-methyl-benzenesulfonamide]"
7,100 to 1000 nM,"CNS(=O)(=O)c1ccc(NC2CCCCC2)c(-c2nnn(CC(F)(F)F)n2)c1 [Compound 39, 4-(cyclohexylamino)-N-methyl-3-(2-(2,2,2-trifluoroethyl)-2H-tetrazol-5-yl)benzenesulfonamide]"
8,> 3000 nM,"CNS(=O)(=O)c1ccc(NC2CCCCC2)c(-c2nnn(-c3ccccc3)n2)c1 [Compound 34, 4-(cyclohexylamino)-N-methyl-3-(2-phenyl-2H-tetrazol-5-yl)benzenesulfonamide]"
9,≤ 100 nM,"CNS(=O)(=O)c1ccc(NC2CCCCC2)c(-c2cn(C)nn2)c1 [Compound 58, 4-(cyclohexylamino)-N-methyl-3-(1-methyl-1H-1,2,3-triazol-4-yl)benzenesulfonamide]"
10,> 3000 nM,"CNS(=O)(=O)c1ccc(NC2CCCCC2)c(-c2nnn(C3CCNC3)n2)c1 (centres unmarked) [Compound 35, 4-(cyclohexylamino)-N-methyl-3-(2-(pyrrolidin-3-yl)-2H-tetrazol-5-yl)benzenesulfonamide]"
11,≤ 100 nM,"CNS(=O)(=O)c1ccc(NC2CCCCC2)c(-c2nc(C)n(C)n2)c1 [Compound 67, 4-(cyclohexylamino)-3-(1,5-dimethyl-1H-1,2,4-triazol-3-yl)-N-methylbenzenesulfonamide]"
12,≤ 100 nM,"CCCn1nnc(-c2cc(S(=O)(=O)NC)ccc2NC2CCCCC2)n1 [Compound 15, 4-(cyclohexylamino)-N-methyl-3-(2-propyl-2H-tetrazol-5-yl)benzenesulfonamide]"
13,100 to 1000 nM,"CNS(=O)(=O)c1ccc(NC2CCCCC2)c(-c2nnn(C3CCCC3)n2)c1 [Compound 18, 4-(cyclohexylamino)-3-(2-cyclopentyl-2H-tetrazol-5-yl)-N-methylbenzenesulfonamide]"
14,> 3000 nM,"CNS(=O)(=O)c1ccc(NC2CCCCC2)c(-c2cccnc2)c1 [Compound 77, 4-(cyclohexylamino)-N-methyl-3-(pyridin-3-yl)benzenesulfonamide]"

# Further lines, the molecule ahead of its results:
row,SMILES,IC50
1,"CNS(=O)(=O)c1ccc(Nc2ccc(-c3ccccc3)cc2)c(-c2nnn(C)n2)c1 [Compound 128, N-methyl-3-(2-methyltetrazol-5-yl)-4-(4-phenylanilino) benzenesulfonamide]",1000 to 3000 nM
2,"CC(C)(C)NS(=O)(=O)c1ccc(NC2CCCCC2)c(-c2nn[nH]n2)c1 [Compound 1, N-(tert-butyl)-4-(cyclohexylamino)-3-(2H-tetrazol-5-yl)benzenesulfonamide]",> 3000 nM
3,"CNS(=O)(=O)c1ccc(Nc2cccc(OC(F)(F)F)c2)c(-c2nnnn2C)c1 [Compound 100, N-methyl-3-(1-methyl-1H-tetrazol-5-yl)-4-((3-(trifluoromethoxy)phenyl)amino)benzenesulfonamide]",> 3000 nM
4,"CC(C)(C)NS(=O)(=O)c1ccc(NC2CCCCC2)c(-c2nnn(CCO)n2)c1 [Compound 2, N-(tert-butyl)-4-(cyclohexylamino)-3-(2-(2-hydroxyethyl)-2H-tetrazol-5-yl)benzenesulfonamide]",> 3000 nM
5,"CNS(=O)(=O)c1ccc(Nc2ccc(C(F)(F)F)cc2)c(-c2nnn(Cc3ccccc3F)n2)c1 [Compound 137, 3-[2-[(2-Fluorophenyl)methyl]tetrazol-5-yl]-N-methyl-4-[4-(trifluoromethyl)anilino]benzene-sulfonamide]",≤ 100 nM
6,"CNS(=O)(=O)c1ccc(Nc2cc(F)ccc2F)c(-c2nnnn2C)c1 [Compound 109, 4-((2,5-difluorophenyl)amino)-N-methyl-3-(1-methyl-1H-tetrazol-5-yl)benzenesulfonamide]",> 3000 nM
7,"CNS(=O)(=O)c1ccc(NC2CCCCC2)c(-c2nnn(C3CCN(C(C)C)CC3)n2)c1 [Compound 46, 4-(cyclohexylamino)-3-(2-(1-isopropylpiperidin-4-yl)-2H-tetrazol-5-yl)-N-methylbenzenesulfonamide]",> 3000 nM
8,"CNS(=O)(=O)c1ccc(Nc2ccccc2C(F)(F)F)c(-c2nnnn2C)c1 [Compound 98, N-methyl-3-(1-methyl-1H-tetrazol-5-yl)-4-((2-(trifluoromethyl)phenyl)amino)benzenesulfonamide]",> 3000 nM
9,"CNS(=O)(=O)c1ccc(NC2CCCCC2)c(-c2nnn(C3CCN(C(C)=O)CC3)n2)c1 [Compound 31, 3-(2-(1-acetylpiperidin-4-yl)-2H-tetrazol-5-yl)-4-(cyclohexylamino)-N-methylbenzenesulfonamide]",100 to 1000 nM
10,"CNS(=O)(=O)c1ccc(NC2CCCCC2)c(-c2nnn(C3CCN(c4cccnc4)CC3)n2)c1 [Compound 33, 4-(cyclohexylamino)-N-methyl-3-(2-(1-(pyridin-3-yl)piperidin-4-yl)-2H-tetrazol-5-yl)benzenesulfonamide]",100 to 1000 nM
11,"CNS(=O)(=O)c1ccc(NC2CCCCC2)c(-c2nnn(C3CCN(C(C)C)C3)n2)c1 (centres unmarked) [Compound 36, 4-(cyclohexylamino)-3-(2-(1-isopropylpyrrolidin-3-yl)-2H-tetrazol-5-yl)-N-methylbenzenesulfonamide]",1000 to 3000 nM
12,"CNS(=O)(=O)c1ccc(NC2CCCCC2)c(-c2nnnn2C2CCCN(C(=O)OC(C)(C)C)C2)c1 (centres unmarked) [Compound 60, tert-butyl 3-(5-(2-(cyclohexylamino)-5-(N-methylsulfamoyl)phenyl)-1H-tetrazol-1-yl)piperidine-1-carboxylate]",> 3000 nM
13,"CNS(=O)(=O)c1ccc(NC2CCCCC2)c(-c2nnn(C3CCN(c4cccnc4)C3)n2)c1 (centres unmarked) [Compound 68, 4-(cyclohexylamino)-N-methyl-3-(2-(1-(pyridin-3-yl)pyrrolidin-3-yl)-2H-tetrazol-5-yl)benzenesulfonamide]",100 to 1000 nM
14,"CNS(=O)(=O)c1ccc(NC2CCCCC2)c(-c2nnn(C3CCN(C(=O)OC(C)(C)C)C3)n2)c1 (centres unmarked) [Compound 24, tert-butyl 3-(5-(2-(cyclohexylamino)-5-(N-methylsulfamoyl)phenyl)-2H-tetrazol-2-yl)pyrrolidine-1-carboxylate]",> 3000 nM
15,"CNS(=O)(=O)c1ccc(NC2CCCC(F)(F)C2)c(-c2nnn(C)n2)c1 (centres unmarked) [Compound 73, 4-((3,3-difluorocyclohexyl)amino)-N-methyl-3-(2-methyl-2H-tetrazol-5-yl)benzenesulfonamide]",≤ 100 nM
16,"CNS(=O)(=O)c1ccc(NC2CCCCC2)c(-c2nnn(C3CCN(c4ccccc4)CC3)n2)c1 [Compound 38, 4-(cyclohexylamino)-N-methyl-3-(2-(1-phenylpiperidin-4-yl)-2H-tetrazol-5-yl)benzenesulfonamide]",> 3000 nM
17,"CNS(=O)(=O)c1ccc(Nc2ccccc2OC(F)(F)F)c(-c2nnnn2C)c1 [Compound 101, N-methyl-3-(1-methyl-1H-tetrazol-5-yl)-4-((2-(trifluoromethoxy)phenyl)amino)benzenesulfonamide]",> 3000 nM
18,"CNS(=O)(=O)c1ccc(Nc2ccccc2C(F)(F)F)c(-c2nnn(C)n2)c1 [Compound 93, N-methyl-3-(2-methyl-2H-tetrazol-5-yl)-4-((2-(trifluoromethyl)phenyl)amino)benzenesulfonamide]",> 3000 nM
19,"CNS(=O)(=O)c1ccc(Nc2cc(Cl)c(Cl)c(Cl)c2)c(-c2cn(C)cn2)c1 [Compound 145, N-methyl-3-(1-methylimidazol-4-yl)-4-(3,4,5-trichloroanilino)benzenesulfonamide]",≤ 100 nM
20,"CNS(=O)(=O)c1ccc(NC2CCCCC2)c(-c2nnn(C3CCN(S(C)(=O)=O)CC3)n2)c1 [Compound 32, 4-(cyclohexylamino)-N-methyl-3-(2-(1-(methylsulfonyl)piperidin-4-yl)-2H-tetrazol-5-yl)benzenesulfonamide]",> 3000 nM
21,"CNS(=O)(=O)c1ccc(NC2CCCCC2)c(-c2nnn(C3CN(C(C)C)C3)n2)c1 [Compound 52, 4-(cyclohexylamino)-3-(2-(1-isopropylazetidin-3-yl)-2H-tetrazol-5-yl)-N-methylbenzenesulfonamide]",100 to 1000 nM
22,"CNS(=O)(=O)c1ccc(NC2CCCCC2)c(-c2nnn(C3CCCN(C(C)=O)C3)n2)c1 (centres unmarked) [Compound 53, 3-(2-(1-acetylpiperidin-3-yl)-2H-tetrazol-5-yl)-4-(cyclohexylamino)-N-methylbenzenesulfonamide]",100 to 1000 nM
23,"CNS(=O)(=O)c1ccc(NC2CCCCC2)c(-c2nnn(C3CCN(C(=O)OC(C)C)CC3)n2)c1 [Compound 47, isopropyl 4-(5-(2-(cyclohexylamino)-5-(N-methylsulfamoyl)phenyl)-2H-tetrazol-2-yl)piperidine-1-carboxylate]",> 3000 nM
24,"CNS(=O)(=O)c1ccc(NC2CCCCC2)c(-c2nnnn2C2CCCNC2)c1 (centres unmarked) [Compound 75, 4-(cyclohexylamino)-N-methyl-3-(1-(piperidin-3-yl)-1H-tetrazol-5-yl)benzenesulfonamide]",1000 to 3000 nM

# Reference: patent US11192865B2, “Benzosulfonyl compounds” (Vivace Therapeutics, Inc., priority 2017, dated 2021)
